Assay results from the supplement of paper PMC10307832.

Columns and labels:
Assay in all cases: relative viability (nuclei count vs DMSO), 5 days (fraction); higher = more cells survive
ChaGo-K-1 = system: ChaGo-K-1
Procedure, shortened: (§1)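 Dosing by pin tool came one day after lung cancer cell lines were seeded in 1536-well plates, using either one drug or a fixed anchor-drug dose plus five library-drug doses (not always all listed) in √10 steps. After 5 days, nuclei were counted on 4× images. Relative viability is treated-well nuclei count divided by vehicle-well nuclei count, and values are medians of duplicate plates.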

LXF-289 = system: LXF-289
Procedure, shortened: as §1

PC-3 [JPC-3] = system: PC-3 [JPC-3]
Procedure, shortened: as §1

NCI-H661 = system: NCI-H661
Procedure, shortened: as §1

NCI-H1651 = system: NCI-H1651
Procedure, shortened: as §1

NCI-H1355 = system: NCI-H1355
Procedure, shortened: as §1

NCI-H838 = system: NCI-H838
Procedure, shortened: as §1

NCI-H1975 = system: NCI-H1975
Procedure, shortened: as §1

NCI-H2342 = system: NCI-H2342
Procedure, shortened: as §1

NCI-H650 = system: NCI-H650
Procedure, shortened: as §1

LCLC-97TM1 = system: LCLC-97TM1
Procedure, shortened: as §1

NCI-H596 = system: NCI-H596
Procedure, shortened: as §1

NCI-H1666 = system: NCI-H1666
Procedure, shortened: as §1

HCC-78 = system: HCC-78
Procedure, shortened: as §1

LK-2 = system: LK-2
Procedure, shortened: as §1

LU99A = system: LU99A
Procedure, shortened: as §1

NCI-H358 = system: NCI-H358
Procedure, shortened: as §1

NCI-H1944 = system: NCI-H1944
Procedure, shortened: as §1

BEN = system: BEN
Procedure, shortened: as §1

NCI-H2087 = system: NCI-H2087
Procedure, shortened: as §1

SK-MES-1 = system: SK-MES-1
Procedure, shortened: as §1

LC-2-ad = system: LC-2-ad
Procedure, shortened: as §1

Cc1sc2c(c1C)C(c1ccc(Cl)cc1)=N[C@@H](CC(=O)OC(C)(C)C)c1nnc(C)n1-2 [JQ1] + Nc1nc2[nH]cc(CCc3ccc(C(=O)N[C@@H](CCC(=O)O)C(=O)O)cc3)c2c(=O)[nH]1 [Pemetrexed] (partner 0.2 µM)
relative viability (ChaGo-K-1; first compound 0.04 µM): 0.25 | relative viability (ChaGo-K-1; first compound 0.1265 µM): 0.256 | relative viability (ChaGo-K-1; first compound 0.4 µM): 0.245 | relative viability (ChaGo-K-1; first compound 1.265 µM): 0.252 | relative viability (ChaGo-K-1; first compound 4 µM): 0.243 | relative viability (LXF-289; first compound 0.04 µM): 0.915 | relative viability (LXF-289; first compound 0.1265 µM): 0.808 | relative viability (LXF-289; first compound 0.4 µM): 0.867 | relative viability (LXF-289; first compound 1.265 µM): 0.59 | relative viability (LXF-289; first compound 4 µM): 0.541 | relative viability (PC-3 [JPC-3]; first compound 0.04 µM): 1.16 | relative viability (PC-3 [JPC-3]; first compound 0.1265 µM): 1.12 | relative viability (PC-3 [JPC-3]; first compound 0.4 µM): 0.818 | relative viability (PC-3 [JPC-3]; first compound 1.265 µM): 0.751 | relative viability (PC-3 [JPC-3]; first compound 4 µM): 0.374 | relative viability (NCI-H661; first compound 0.04 µM): 0.914 | relative viability (NCI-H661; first compound 0.1265 µM): 0.876 | relative viability (NCI-H661; first compound 0.4 µM): 0.916 | relative viability (NCI-H661; first compound 1.265 µM): 0.482 | relative viability (NCI-H661; first compound 4 µM): 0.423 | relative viability (NCI-H1651; first compound 0.04 µM): 0.589 | relative viability (NCI-H1651; first compound 0.1265 µM): 0.45 | relative viability (NCI-H1651; first compound 0.4 µM): 0.391 | relative viability (NCI-H1651; first compound 1.265 µM): 0.458 | relative viability (NCI-H1651; first compound 4 µM): 0.358 | relative viability (NCI-H1355; first compound 0.04 µM): 1.05 | relative viability (NCI-H1355; first compound 0.1265 µM): 1.04 | relative viability (NCI-H1355; first compound 0.4 µM): 1.07 | relative viability (NCI-H1355; first compound 1.265 µM): 0.893 | relative viability (NCI-H1355; first compound 4 µM): 0.718 | relative viability (NCI-H838; first compound 0.04 µM): 0.24 | relative viability (NCI-H838; first compound 0.1265 µM): 0.167 | relative viability (NCI-H838; first compound 0.4 µM): 0.176 | relative viability (NCI-H838; first compound 1.265 µM): 0.177 | relative viability (NCI-H838; first compound 4 µM): 0.17 | relative viability (NCI-H1975; first compound 0.04 µM): 0.284 | relative viability (NCI-H1975; first compound 0.1265 µM): 0.233 | relative viability (NCI-H1975; first compound 0.4 µM): 0.234 | relative viability (NCI-H1975; first compound 1.265 µM): 0.19 | relative viability (NCI-H1975; first compound 4 µM): 0.173 | relative viability (NCI-H2342; first compound 0.04 µM): 0.805 | relative viability (NCI-H2342; first compound 0.1265 µM): 0.73 | relative viability (NCI-H2342; first compound 0.4 µM): 0.852 | relative viability (NCI-H2342; first compound 1.265 µM): 0.781 | relative viability (NCI-H2342; first compound 4 µM): 0.617 | relative viability (NCI-H650; first compound 0.04 µM): 0.886 | relative viability (NCI-H650; first compound 0.1265 µM): 0.664 | relative viability (NCI-H650; first compound 0.4 µM): 0.839 | relative viability (NCI-H650; first compound 1.265 µM): 0.6 | relative viability (NCI-H650; first compound 4 µM): 0.276 | relative viability (LCLC-97TM1; first compound 0.04 µM): 0.168 | relative viability (LCLC-97TM1; first compound 0.1265 µM): 0.199 | relative viability (LCLC-97TM1; first compound 0.4 µM): 0.172 | relative viability (LCLC-97TM1; first compound 1.265 µM): 0.141 | relative viability (LCLC-97TM1; first compound 4 µM): 0.0882 | relative viability (NCI-H596; first compound 0.04 µM): 0.491 | relative viability (NCI-H596; first compound 0.1265 µM): 0.461 | relative viability (NCI-H596; first compound 0.4 µM): 0.386 | relative viability (NCI-H596; first compound 1.265 µM): 0.335 | relative viability (NCI-H596; first compound 4 µM): 0.367 | relative viability (NCI-H1666; first compound 0.04 µM): 0.801 | relative viability (NCI-H1666; first compound 0.1265 µM): 0.786 | relative viability (NCI-H1666; first compound 0.4 µM): 0.697 | relative viability (NCI-H1666; first compound 1.265 µM): 0.659 | relative viability (NCI-H1666; first compound 4 µM): 0.602 | relative viability (HCC-78; first compound 0.04 µM): 0.87 | relative viability (HCC-78; first compound 0.1265 µM): 0.957 | relative viability (HCC-78; first compound 0.4 µM): 0.977 | relative viability (HCC-78; first compound 1.265 µM): 0.91 | relative viability (HCC-78; first compound 4 µM): 0.866 | relative viability (LK-2; first compound 0.04 µM): 0.282 | relative viability (LK-2; first compound 0.1265 µM): 0.29 | relative viability (LK-2; first compound 0.4 µM): 0.234 | relative viability (LK-2; first compound 1.265 µM): 0.16 | relative viability (LK-2; first compound 4 µM): 0.158 | relative viability (LU99A; first compound 0.04 µM): 0.173 | relative viability (LU99A; first compound 0.4 µM): 0.167 | relative viability (LU99A; first compound 1.265 µM): 0.15 | relative viability (LU99A; first compound 4 µM): 0.153 | relative viability (NCI-H358; first compound 0.04 µM): 0.185 | relative viability (NCI-H358; first compound 0.1265 µM): 0.198 | relative viability (NCI-H358; first compound 0.4 µM): 0.199 | relative viability (NCI-H358; first compound 1.265 µM): 0.16 | relative viability (NCI-H358; first compound 4 µM): 0.153 | relative viability (NCI-H1944; first compound 0.04 µM): 0.74 | relative viability (NCI-H1944; first compound 0.1265 µM): 0.565 | relative viability (NCI-H1944; first compound 0.4 µM): 0.466 | relative viability (NCI-H1944; first compound 1.265 µM): 0.446 | relative viability (NCI-H1944; first compound 4 µM): 0.438 | relative viability (BEN; first compound 0.04 µM): 0.7 | relative viability (BEN; first compound 0.1265 µM): 0.523 | relative viability (BEN; first compound 0.4 µM): 0.67 | relative viability (BEN; first compound 1.265 µM): 0.518 | relative viability (BEN; first compound 4 µM): 0.384 | relative viability (NCI-H2087; first compound 0.04 µM): 0.621 | relative viability (NCI-H2087; first compound 0.1265 µM): 0.675 | relative viability (NCI-H2087; first compound 0.4 µM): 0.692 | relative viability (NCI-H2087; first compound 1.265 µM): 0.558 | relative viability (NCI-H2087; first compound 4 µM): 0.463 | relative viability (SK-MES-1; first compound 0.04 µM): 0.967 | relative viability (SK-MES-1; first compound 0.1265 µM): 0.686 | relative viability (SK-MES-1; first compound 0.4 µM): 0.397 | relative viability (SK-MES-1; first compound 1.265 µM): 0.289 | relative viability (SK-MES-1; first compound 4 µM): 0.235 | relative viability (LC-2-ad; first compound 0.04 µM): 0.268 | relative viability (LC-2-ad; first compound 0.1265 µM): 0.258 | relative viability (LC-2-ad; first compound 0.4 µM): 0.244 | relative viability (LC-2-ad; first compound 1.265 µM): 0.256 | relative viability (LC-2-ad; first compound 4 µM): 0.209
